# Patent publication US11517016B2, “Agrochemical combinations” (UPL LTD, priority 2017, dated 2022)
# Tests used:
# fruit borer = experiment: Trials of Chlorantraniliprole and Orthosilicic acid on controlling fruit borer; assay type: in vivo; conditions: for Percent fruit Borer control Mean: Mean of A-10, B-10, C-10
# Protocol: Trials were conducted to test the efficacy of the combination of Chlorantraniliprole and Orthosilicic acid on controlling fruit borer at different dosages.
# Early Blight = experiment: Trials of Chlorantraniliprole+Mancozeb+Orthosilicic acid on Early Blight control; assay type: in vivo
# Protocol: Trials were conducted to test the efficacy of the combination of Chlorantraniliprole+Mancozeb+Orthosilicic acid on Early Blight control: […]
compound,measurement,setting,value
Orthosilicic acid [OSA],Percent fruit Borer control A-10,fruit borer; dose 750 gm-ml/ha,2.1%
same,Percent fruit Borer control B-10,fruit borer; dose 750 gm-ml/ha,3.6%
same,Percent fruit Borer control C-10,fruit borer; dose 750 gm-ml/ha,4.4%
same,Percent fruit Borer control Mean,fruit borer; dose 750 gm-ml/ha,3.37%
same,Per Cent Early Blight Control (PDC) A-10,"Early Blight; T-7, dose 750 gm-ml/ha",9.38%
same,Per Cent Early Blight Control (PDC) B-10,"Early Blight; T-7, dose 750 gm-ml/ha",11.57%
same,Per Cent Early Blight Control (PDC) C-10,"Early Blight; T-7, dose 750 gm-ml/ha",13.95%
same,Per Cent Early Blight Control (PDC) Mean,"Early Blight; T-7, dose 750 gm-ml/ha",11.63%
same,Effect of addition on effectiveness of the combination of chlorantraniliprole+Mancozeb against Early blight,Early Blight; added to Chlorantraniliprole+Mancozeb,act as synergist
CNC(=O)c1cc(Cl)cc(C)c1NC(=O)c1cc(Br)nn1-c1ncccc1Cl [Chlorantraniliprole],Percent fruit Borer control A-10,fruit borer; dose 150 gm-ml/ha,73.8%
same,Percent fruit Borer control B-10,fruit borer; dose 150 gm-ml/ha,85.4%
same,Percent fruit Borer control C-10,fruit borer; dose 150 gm-ml/ha,87.8%
same,Percent fruit Borer control Mean,fruit borer; dose 150 gm-ml/ha,82.33%
same,Per Cent Early Blight Control (PDC) A-10,"Early Blight; T-5, dose 150 gm-ml/ha",04.52%
same,Per Cent Early Blight Control (PDC) B-10,"Early Blight; T-5, dose 150 gm-ml/ha",02.39%
same,Per Cent Early Blight Control (PDC) C-10,"Early Blight; T-5, dose 150 gm-ml/ha",02.76%
same,Per Cent Early Blight Control (PDC) Mean,"Early Blight; T-5, dose 150 gm-ml/ha",3.22%
Mancozeb,Per Cent Early Blight Control (PDC) A-10,"Early Blight; T-6, dose 2000 gm-ml/ha",72.26%
same,Per Cent Early Blight Control (PDC) B-10,"Early Blight; T-6, dose 2000 gm-ml/ha",77.04%
same,Per Cent Early Blight Control (PDC) C-10,"Early Blight; T-6, dose 2000 gm-ml/ha",81.17%
same,Per Cent Early Blight Control (PDC) Mean,"Early Blight; T-6, dose 2000 gm-ml/ha",76.82%
